Laboratory results as given in patent US11236088B2, “Heterocyclic compounds and their application in medicine” (KIND PHARMACEUTICAL, priority 2017, dated 2022).

Test system: MCF-7 cells
Assay: Inhibitory effect on the growth of MCF-7 cells (CellTiter-Glo, 10 days)
Assay type: cell-based
Settings: Homo sapiens, MCF7, 240 h, 10 days incubation, CellTiter-Glo chemiluminescence
Method: Assay 2: Inhibitory effect of compounds of the present invention on the growth of MCF-7 cells by a cell drug inhibition experiment
1. Experimental Materials
1) Reagents: DMEM high glucose medium (Lonza #12-604F), FBS (BI #04-00F1ACS), antibiotics (Thermofisher #15070063), bovine insulin (Western reagent #11070-73-8), trypsin (Thermofisher #25200-056), CellTiter-Glo reagent (Promega #G7571)
2) Instruments: American MD-M5 microplate reader 5;
2. Experimental Procedures:
1) 100 μl of MCF-7 cells was added to a medium in a white opaque 96-well plate at a density of 5000 cells/ml in which the medium is DMEM high-glucose medium supplemented with 10% FBS. The cells were cultured in a 5% CO2 cell incubator at 37° C. for 24 hours.
2) Different concentrations of corresponding compounds were added to the 96-well plate for incubating MCF-7 cells. The cells were incubated for 10 days in a 5% CO2 cell incubator.
3) To each well of MCF-7 cells, 100 μl of CellTiter-Glo reagent was added and then set aside at room temperature for 10 minutes. The chemiluminescence signal was read using an MD-M5 microplate reader, and the data was processed using GraphPad Prism to calculate IC50 value.

| SMILES | IC50 |
| --- | --- |
| CCCCCN1CC(Sc2cc(F)c([C@@H]3c4ccc5[nH]ncc5c4CN(C)[C@H]3CC3CC3)c(F)c2)C1 [Example 29, (6S, 7S)-7-cyclopropylmethyl-6-(2,6-difluoro-4-((1-pentylazetidin-3-yl)thio)phenyl)-8-methyl-6,7,8,9-tetrahydro-3H-pyrazolo [3,4-h]isoquinoline] | > 1000 nM |
| CCC(=O)N1CC(Oc2cc(F)c([C@@H]3c4ccc5[nH]ncc5c4CN(C)[C@H]3CC(C)C)c(F)c2)C1 [Example 32, 1-(3-(3,5-difluoro-4-((6S, 7S)-7-isobutyl-8-methyl-6,7,8,9-tetrahydro-3H-pyrazolo [3,4-h]isoquinolin-6-yl)phenoxy)azetidin-1-yl) propan-1-one] | ≤ 1 nM |
| CCCC(=O)N1CC(Oc2cc(F)c([C@@H]3c4ccc5[nH]ncc5c4CN(C)[C@H]3CC(C)C)c(F)c2)C1 [Example 33, 1-(3-(3,5-difluoro-4-((6S, 7S)-7-isobutyl-8-methyl-6,7,8,9-tetrahydro-3H-pyrazolo [3,4-h]isoquinolin-6-yl)phenoxy)azetidin-1-yl) butan-1-one] | 10 to 1000 nM |
| CC(C)C[C@H]1[C@H](c2c(F)cc(OC3CN(C(=O)C(C)C)C3)cc2F)c2ccc3[nH]ncc3c2CN1C [Example 34, 1-(3-(3,5-difluoro-4-((6S, 7S)-7-isobutyl-8-methyl-6,7,8,9-tetrahydro-3H-pyrazolo [3,4-h]isoquinolin-6-yl)phenoxy)azetidin-1-yl)-2-methylpropan-1-one] | 1 to 10 nM |
| C[C@]12CC[C@@H]3c4ccc(O)cc4C[C@@H](CCCCCCCCC[S+]([O-])CCCC(F)(F)C(F)(F)F)[C@H]3[C@@H]1CC[C@@H]2O (stereo partly shown) [Fulvestrant, reference compound] | 10 to 1000 nM |

The remaining lines, values ahead:

| IC50 | SMILES |
| --- | --- |
| ≤ 1 nM | CC(C)C[C@H]1[C@H](c2c(F)cc(OC3CN(C=O)C3)cc2F)c2ccc3[nH]ncc3c2CN1C [Example 30, 3-(3,5-difluoro-4-((6S, 7S)-7-isobutyl-8-methyl-6,7,8,9-tetrahydro-3H-pyrazolo [3,4-h]isoquinolin-6-yl)phenoxy) azetidin-1-aldehyde] |
| ≤ 1 nM | CC(=O)N1CC(Oc2cc(F)c([C@@H]3c4ccc5[nH]ncc5c4CN(C)[C@H]3CC(C)C)c(F)c2)C1 [Example 31, 1-(3-(3,5-difluoro-4-((6S, 7S)-7-isobutyl-8-methyl-6,7,8,9-tetrahydro-3H-pyrazolo [3,4-h]isoquinolin-6-yl)phenoxy)azetidin-1-yl) ethan-1-one] |
